The assay has as its system plasma active GLP-1. The experiment in a line: In vivo plasma active GLP-1 level-increasing action after oral administration. Also on record: species or system mice. As to conditions: 10 mg/kg orally; for Plasma active GLP-1 level (relative value to control group as 100), Average value: male C57/BL6J mice, blood after 30 minutes, 0.5% CMC-Na group = 100; for Significant difference (p < 0.05) vs control group, plasma active GLP-1 level: mice, 30 minutes, Student's t-test. How it is done:
In the Test Examples below, data were represented as average value±standard error. In Test Examples 1, 2, and 3, a Student's t-test was used for a statistical test, and in other Test Examples, one-way ANOVA was carried out for dispersion analysis followed by a multiple comparison test by using a Dunnet's test. […] All of these analyses were carried out by using an SPSS for Windows release 17.0 (manufactured by SPSS Inc.).
Among the cyclic dipeptides, cyclic dipeptides for which an in vitro GLP-1 secretion-accelerating action was found and highly lipid-soluble cyclic dipeptides were used in the following experiment. Seven-week-old male C57/BL6J mice were purchased from CLEA Japan, Inc. for use, and they were subjected to an experiment after 1 week of a habituation period. Each animal was grown in an animal room with an air conditioning system (temperature: 23.5±1.0° C., humidity: 55±10 RH %, air ventilation: 12 to 15 times/hour, illumination: from 7:00 to 19:00/day).
After the habituation period, the mice were subjected to 5.5 hours of food deprivation and 2 hours of water deprivation. Thereafter, a cyclic dipeptide dissolved or suspended in a 0.5% CMC-Na aqueous solution in 10 mg/kg was orally administered to each mouse forcibly. After 30 minutes, the blood was collected from the abdominal vena cava under anesthesia, and 1 μL of heparin sodium and 1 μL of 10 mM Sitagliptin phosphate were added to each collected blood, which was then subjected to centrifugation at 8000 rpm for 10 minutes to recover the plasma, and the plasma active GLP-1 level was measured by using the ELISA kit. In the analysis, the active GLP-1 level for a group administered with 0.5% CMC-Na aqueous solution was defined as 100, and relative values thereto were used.
In each Table, cyclic dipeptides for which an in vivo plasma active GLP-1 level-increasing action was found and was not found are listed.

Take `O=C1CNC(=O)C(Cc2ccccc2)N1` (stereo not drawn) [compound 8]: under “Experiment 4”, the “Plasma active GLP-1 level (relative value to control group as 100), Average value” came out at 85 and the “Significant difference (p < 0.05) vs control group, plasma active GLP-1 level” value is recorded as “No”.
On to `CC(C)C1NC(=O)C(C(C)C)NC1=O` (stereo not drawn) [compound 11], for which, where the note is “Experiment 4”, the “Plasma active GLP-1 level (relative value to control group as 100), Average value” was 100 and the “Significant difference (p < 0.05) vs control group, plasma active GLP-1 level” value is listed as “No”.
`CCC(C)C1NC(=O)C(C(C)CC)NC1=O` (stereo not drawn) [compound 14]: where the note is “Experiment 4”, the “Plasma active GLP-1 level (relative value to control group as 100), Average value” amounted to 105 and the “Significant difference (p < 0.05) vs control group, plasma active GLP-1 level” value was “No”.
For `CC(C)CC1NC(=O)C(CC(C)C)NC1=O` (stereo not drawn) [compound 15], under “Experiment 4”, the “Plasma active GLP-1 level (relative value to control group as 100), Average value” was determined as 95 and the “Significant difference (p < 0.05) vs control group, plasma active GLP-1 level” value is listed as “No”.
On to `CC(C)CC1NC(=O)C(Cc2ccccc2)NC1=O` (stereo not drawn) [compound 16], for which, where the note is “Experiment 4”, the “Plasma active GLP-1 level (relative value to control group as 100), Average value” turned out to be 105 and the “Significant difference (p < 0.05) vs control group, plasma active GLP-1 level” value is listed as “No”.
With `O=C1NC(Cc2ccccc2)C(=O)NC1Cc1ccccc1` (stereo not drawn) [compound 17], where the note is “Experiment 3”, the “Plasma active GLP-1 level (relative value to control group as 100), Average value” turned out to be 203 and the “Significant difference (p < 0.05) vs control group, plasma active GLP-1 level” value was “Yes”.
As to `O=C1NC(Cc2c[nH]c3ccccc23)C(=O)NC1Cc1ccc(O)cc1` (stereo not drawn) [compound 22], for the setting “Experiment 3”, the “Plasma active GLP-1 level (relative value to control group as 100), Average value” stood at 203 and the “Significant difference (p < 0.05) vs control group, plasma active GLP-1 level” value is “Yes”.
`O=C1NC(Cc2ccc(O)cc2)C(=O)NC1CO` (stereo not drawn) [compound 29]: where the note is “Experiment 4”, the “Plasma active GLP-1 level (relative value to control group as 100), Average value” was determined as 95 and the “Significant difference (p < 0.05) vs control group, plasma active GLP-1 level” value was “No”.
`O=C1NC(Cc2ccc(O)cc2)C(=O)N2CCCC12` (stereo not drawn) [compound 30]: where the note is “Experiment 4”, the “Plasma active GLP-1 level (relative value to control group as 100), Average value” was 95 and the “Significant difference (p < 0.05) vs control group, plasma active GLP-1 level” value is reported as “No”.
For `O=C(O)CC1NC(=O)C(Cc2ccccc2)NC1=O` (stereo not drawn) [compound 33] the same measures were 90 and “No”.
Regarding `O=C1NC(Cc2c[nH]cn2)C(=O)NC1Cc1ccccc1` (stereo not drawn) [compound 38], under “Experiment 3”, the “Plasma active GLP-1 level (relative value to control group as 100), Average value” worked out at 264 and the “Significant difference (p < 0.05) vs control group, plasma active GLP-1 level” value is “Yes”.
Regarding `CC(C)CC1NC(=O)C(Cc2c[nH]c3ccccc23)NC1=O` (stereo not drawn) [compound 39], where the note is “Experiment 3”, the “Plasma active GLP-1 level (relative value to control group as 100), Average value” stood at 229 and the “Significant difference (p < 0.05) vs control group, plasma active GLP-1 level” value is given as “Yes”.
For `CC(C)CC1NC(=O)C(C)NC1=O` (stereo not drawn) [compound 44] the same measures were 255 and “Yes”.
Take `O=C1NC(Cc2ccc(O)cc2)C(=O)NC1Cc1ccc(O)cc1` (stereo not drawn) [compound 49]: for the setting “Experiment 5”, the “Plasma active GLP-1 level (relative value to control group as 100), Average value” worked out at 100 and the “Significant difference (p < 0.05) vs control group, plasma active GLP-1 level” value is listed as “No”.
With `CC(C)C1NC(=O)C(Cc2c[nH]c3ccccc23)NC1=O` (stereo not drawn) [compound 61], under “Experiment 3”, the “Plasma active GLP-1 level (relative value to control group as 100), Average value” was 117 and the “Significant difference (p < 0.05) vs control group, plasma active GLP-1 level” value is reported as “No”.
In the case of `CSCCC1NC(=O)C(CC(C)C)NC1=O` (stereo not drawn) [compound 72], for the setting “Experiment 6”, the “Plasma active GLP-1 level (relative value to control group as 100), Average value” is 90 and the “Significant difference (p < 0.05) vs control group, plasma active GLP-1 level” value is reported as “No”.
As for `O=C1NC(Cc2c[nH]c3ccccc23)C(=O)NC1Cc1c[nH]c2ccccc12` (stereo not drawn) [compound 75], where the note is “Experiment 3”, the “Plasma active GLP-1 level (relative value to control group as 100), Average value” was found to be 229 and the “Significant difference (p < 0.05) vs control group, plasma active GLP-1 level” value was “Yes”.
Consider `CC(O)C1NC(=O)C(Cc2c[nH]c3ccccc23)NC1=O` (stereo not drawn) [compound 79], for which, where the note is “Experiment 6”, the “Plasma active GLP-1 level (relative value to control group as 100), Average value” amounted to 100 and the “Significant difference (p < 0.05) vs control group, plasma active GLP-1 level” value is “No”.
The matching figures for `NC(=O)CCC1NC(=O)C(Cc2c[nH]c3ccccc23)NC1=O` (stereo not drawn) [compound 82]: 90 and “No”.
On to `O=C(O)CCC1NC(=O)C(Cc2ccc(O)cc2)NC1=O` (stereo not drawn) [compound 87], for which, for the setting “Experiment 7”, the “Plasma active GLP-1 level (relative value to control group as 100), Average value” is 141 and the “Significant difference (p < 0.05) vs control group, plasma active GLP-1 level” value is recorded as “No”.
Turning to `CC(C)C1NC(=O)C(Cc2ccc(O)cc2)NC1=O` (stereo not drawn) [compound 88], for the setting “Experiment 7”, the “Plasma active GLP-1 level (relative value to control group as 100), Average value” is 385 and the “Significant difference (p < 0.05) vs control group, plasma active GLP-1 level” value was “Yes”.
In the case of `CC(O)C1NC(=O)C(Cc2ccc(O)cc2)NC1=O` (stereo not drawn) [compound 90], under “Experiment 7”, the “Plasma active GLP-1 level (relative value to control group as 100), Average value” is on record as 466 and the “Significant difference (p < 0.05) vs control group, plasma active GLP-1 level” value is “Yes”.
As to `O=C(O)CC1NC(=O)C(Cc2ccc(O)cc2)NC1=O` (stereo not drawn) [compound 91], for the setting “Experiment 7”, the “Plasma active GLP-1 level (relative value to control group as 100), Average value” came to 181 and the “Significant difference (p < 0.05) vs control group, plasma active GLP-1 level” value is given as “No”.
In the case of `NC(=O)CC1NC(=O)C(Cc2ccc(O)cc2)NC1=O` (stereo not drawn) [compound 92], where the note is “Experiment 7”, the “Plasma active GLP-1 level (relative value to control group as 100), Average value” was found to be 181 and the “Significant difference (p < 0.05) vs control group, plasma active GLP-1 level” value is recorded as “No”.
As for `NC(=O)CCC1NC(=O)C(Cc2ccc(O)cc2)NC1=O` (stereo not drawn) [compound 93], where the note is “Experiment 7”, the “Plasma active GLP-1 level (relative value to control group as 100), Average value” is 344 and the “Significant difference (p < 0.05) vs control group, plasma active GLP-1 level” value was “Yes”.
For `CC(C)CC1NC(=O)C(Cc2c[nH]cn2)NC1=O` (stereo not drawn) [compound 103], for the setting “Experiment 8”, the “Plasma active GLP-1 level (relative value to control group as 100), Average value” was 94 and the “Significant difference (p < 0.05) vs control group, plasma active GLP-1 level” value is “No”.
With `CSCCC1NC(=O)C(C)NC1=O` (stereo not drawn) [compound 125], the “Plasma active GLP-1 level (relative value to control group as 100), Average value” (Experiment 9) is on record as 133.
As to `CSCCC1NC(=O)CNC1=O` (stereo not drawn) [compound 127], under “Experiment 9”, the “Plasma active GLP-1 level (relative value to control group as 100), Average value” is reported as 124 and the “Significant difference (p < 0.05) vs control group, plasma active GLP-1 level” value was “Yes”.
Regarding `CCC(C)C1NC(=O)C(CO)NC1=O` (stereo not drawn) [compound 133], under “Experiment 9”, the “Plasma active GLP-1 level (relative value to control group as 100), Average value” was 133 and the “Significant difference (p < 0.05) vs control group, plasma active GLP-1 level” value is reported as “Yes”.
As for `CC(C)C1NC(=O)C(CC(N)=O)NC1=O` (stereo not drawn) [compound 141], where the note is “Experiment 10”, the “Plasma active GLP-1 level (relative value to control group as 100), Average value” was found to be 191 and the “Significant difference (p < 0.05) vs control group, plasma active GLP-1 level” value is “Yes”.
With `CCC(C)C1NC(=O)C(Cc2cnc[nH]2)NC1=O` (stereo not drawn) [compound 148], under “Experiment 10”, the “Plasma active GLP-1 level (relative value to control group as 100), Average value” came to 259 and the “Significant difference (p < 0.05) vs control group, plasma active GLP-1 level” value is reported as “Yes”.
The matching figures for `CCC(C)C1NC(=O)C(CCCCN)NC1=O` (stereo not drawn) [compound 150]: 282 and “Yes”.
On to `CC(C)C1NC(=O)CNC1=O` (stereo not drawn) [compound 155], for which, for the setting “Experiment 10”, the “Plasma active GLP-1 level (relative value to control group as 100), Average value” was 55 and the “Significant difference (p < 0.05) vs control group, plasma active GLP-1 level” value is given as “No”.
In the case of `CCC(C)C1NC(=O)C(C(C)O)NC1=O` (stereo not drawn) [compound 161], under “Experiment 10”, the “Plasma active GLP-1 level (relative value to control group as 100), Average value” amounted to 282 and the “Significant difference (p < 0.05) vs control group, plasma active GLP-1 level” value is listed as “Yes”.
In the case of `CCC(C)C1NC(=O)C(CC(=O)O)NC1=O` (stereo not drawn) [compound 162], under “Experiment 10”, the “Plasma active GLP-1 level (relative value to control group as 100), Average value” is reported as 259 and the “Significant difference (p < 0.05) vs control group, plasma active GLP-1 level” value is “Yes”.
On to `CCC(C)C1NC(=O)C(CC(N)=O)NC1=O` (stereo not drawn) [compound 163], for which, where the note is “Experiment 10”, the “Plasma active GLP-1 level (relative value to control group as 100), Average value” is 327 and the “Significant difference (p < 0.05) vs control group, plasma active GLP-1 level” value was “Yes”.
In the case of `CSCCC1NC(=O)C(C(C)O)NC1=O` (stereo not drawn) [compound 169], where the note is “Experiment 10”, the “Plasma active GLP-1 level (relative value to control group as 100), Average value” is given as 282 and the “Significant difference (p < 0.05) vs control group, plasma active GLP-1 level” value is given as “Yes”.
For `O=C1NC(CS)C(=O)NC1CO` (stereo not drawn) [compound 180], under “Experiment 10”, the “Plasma active GLP-1 level (relative value to control group as 100), Average value” worked out at 259 and the “Significant difference (p < 0.05) vs control group, plasma active GLP-1 level” value is “Yes”.

The values are drawn from patent publication US20170114030A1, “COMPOSITION WITH HIGH CONTENT OF CYCLIC DIPEPTIDE” (SUNTORY HOLDINGS LIMITED, priority 2014, published 2017).
